The record followed here is patent US20260308159A1, “BICYCLIC HETEROARYLAMIDES HAVING GPR68 MODULATING ACTIVITY” (RECURSION PHARMACEUTICALS, INC., priority 2023, published 2026).

pIC50: −log10 of the molar value. Read-outs that look alike come from different tables or passages of the source.

This experiment deals with T1, human GPR68 (Homo sapiens, UniProt Q15743).
T1 construct: encoding full-length human GPR68 (uniprot ID: Q15743); expressed in transfected cells; host or cells: HEK293T
Briefly: GPR68 Biochemical Assay (Promega GloSensor cAMP assay, GPR68 antagonism). The conditions noted are these: 15 min. It counts as cell-based. Here is the method:
GPR68 antagonism was determined using the Promega GloSensor™ CAMP assay (F. I. Wang et al., Methods 2021, S1046-2023 (21) 00249-8). HEK293T cells (obtained from ECACC, Cat 12022001, Lot no. 17E044) were cultured in T175 flasks (Greiner, Cat 660175) in DMEM (Gibco, Cat 11995-065) supplemented with 10% Fetal Bovine Serum (Gibco Cat 16000-044), and 100 u/mL Pen-Strep (Gibco, Cat 15140) at 37° C. and 5% CO2. GPR68 expression was achieved by transient transfection with a mammalian expression plasmid encoding full-length human GPR68 (uniprot ID: Q15743) under control of a CMV promoter. The day before transfection, cell media was aspirated and HEK293T cells were incubated with accutase (Sigma, Cat A6964) for 3-4 minutes 37° C. and 5% CO2 before being manually detached with excess DMEM and trituration. Cell density was determined by automated cell counting (Countess, Invitrogen) and adjusted to 6×10^6 cells/20 mL and transferred to 15 cm dishes (Thermo Fisher, Cat 130183) for overnight incubation at 37° C. and 5% CO2. The next day separate mammalian expression plasmids encoding hGPR68 (4 μg) and Promega GloSensor (8 μg) were diluted to 1 mL in Opti-MEM (Thermo Fisher Scientific, Cat 31985070) and incubated with 30 μL of lipofectamine 3000 (also diluted to 1 mL in Opti-MEM) for 15 minutes at room temperature and subsequently added dropwise to the plated cells. Post transfection cells were then incubated at 37° C. and 5% CO2 for at least 16 hours before transfer to assay plates the following day. Transfer was conducted by washing cells with PBS and incubating with accutase for 3-4 minutes 37° C. and 5% CO2 before being manually detached with excess DMEM and mild trituration. The suspension was then centrifuged at 192 RCF for 4 minutes in a 50 mL centrifuge tube (Greiner, Cat 227261).
Supernatant was removed by aspiration and the cell pellet was resuspended in DMEM+1% dialysed FBS (Gibco, Cat 26400-044) and 100 u/mL Pen-Strep to a cell density of 500 cells/μL. Cells were plated into poly-L-Lysine coated 384-well white assay plates (Corning, Cat 3570) at a final volume of 40 µL and a density of 20,000 cells/well before overnight incubation at 37° C. and 5% CO2. The following day media was manually ejected from the 384-well assay plate and replaced with 10 μL GloSensor substrate (Promega, Cat E1291) prepared in pH 8.0 assay buffer (1×HBSS, 10 mM HEPES, 10 mM MOPS). Cells were incubated with this solution for 60 minutes at room temperature in the dark. Test compounds or an equivalent volume of DMSO (vehicle) were added to compounds plates to create a 9-point, half-log concentration series for each compound with a maximum final assay concentration of 50 μM and a consistent final DMSO concentration of 0.5%. Assay buffer with 0.1% BSA and 0.01% ascorbic acid was prepared at three pHs: pH 8.0, pH 5.5 and pH 4.5. pH 8.0 and 4.5 were added to the compound plate as maximum and minimum effect controls whilst pH 5.5 was added to all compound wells to stimulate GPR68 to a level corresponding to […] of maximal stimulation after addition to the cells already in pH 8.0 (assay acceptance criteria range 70-90%). DMSO/Compound and buffer was added to the plated cells containing the GloSensor substrate and incubated for 15 minutes at room temperature before being read on a microplate reader (BMG PHERAstar, optic module LUM Plus with Gain 3600). Data was exported and analysed in excel and Graphpad prism (version 9). Assay QC acceptance criteria required the maximum and minimum controls to return a Z′≥0.5, the EC80 to be 80%±10% of expected and the reference ligand pIC50 to be within one-half-log unit of its historical IC50. Percent inhibition was calculated using the mean EC80 (pH 5.5) and mean minimum effect control (pH 8.0). Data were plotted as percentage inhibition, average±SEM. IC50, Emax, Emin, Actual max, actual min, R^2 and fit confidence were calculated using Graphpad Prism's sigmoidal dose-response function.
In general terms: cAMP levels reflect the balance of adenylyl cyclase and phosphodiesterase activity.

[1] abbreviates: HEK293T cells transiently expressing hGPR68, antagonism of pH 5.5 stimulated cAMP, read-out: hGPR68 IC50.
[2] abbreviates: hGPR68 IC50, HEK293T cells transiently expressing hGPR68, antagonism of pH 5.5 stimulated cAMP.

T1 sequence (Q15743 whole entry): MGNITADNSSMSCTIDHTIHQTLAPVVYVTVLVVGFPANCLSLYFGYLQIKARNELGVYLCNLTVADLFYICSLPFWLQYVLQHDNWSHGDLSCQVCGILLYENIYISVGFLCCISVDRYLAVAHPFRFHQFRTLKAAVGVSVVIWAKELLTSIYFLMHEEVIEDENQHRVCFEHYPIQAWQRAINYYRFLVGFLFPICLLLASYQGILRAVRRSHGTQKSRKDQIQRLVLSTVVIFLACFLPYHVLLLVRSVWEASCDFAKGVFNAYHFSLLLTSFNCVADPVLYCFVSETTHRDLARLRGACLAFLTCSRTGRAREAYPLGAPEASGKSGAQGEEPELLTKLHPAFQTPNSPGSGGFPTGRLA

With `NC(=O)c1c(-c2cccnn2)nn2c(C(=O)NC3Cc4ccccc4C3)ccnc12` [Compound 22, N7-indan-2-yl-2-pyridazin-3-yl-pyrazolo[1,5-a]pyrimidine-3,7-dicarboxamide], under setting [1], the pIC50 was 5.30 to 6.30.

`CN(C)CCNc1nn2c(C(=O)NC3Cc4ccccc4C3)ccnc2c1C(N)=O` [Compound 23, 2-[2-(dimethylamino)ethylamino]-N7-indan-2-yl-pyrazolo[1,5-a]pyrimidine-3,7-dicarboxamide]: under setting [1], the pIC50 was 4.00 to 4.30.

In the case of `CN1CC(c2nn3c(C(=O)NC4Cc5ccccc5C4)ccnc3c2C(N)=O)C1` [Compound 24, N7-indan-2-yl-2-(1-methylazetidin-3-yl)pyrazolo[1,5-a]pyrimidine-3,7-dicarboxamide], the pIC50 under setting [1] was 4.00 to 4.30.

Consider `NC(=O)c1c(-c2ncco2)nn2c(C(=O)NC3CC(F)(F)C3)ccnc12` [Compound 25, N7-(3,3-difluorocyclobutyl)-2-oxazol-2-yl-pyrazolo[1,5-a]pyrimidine-3,7-dicarboxamide], for which the pIC50 under setting [1] was 5.30 to 6.30.

Take `Cc1nc2c(C(=O)NC3CC(F)(F)C3)ccnn2c1C(N)=O` [Compound 26, N8-(3,3-difluorocyclobutyl)-2-methyl-imidazo[1,2-b]pyridazine-3,8-dicarboxamide]: the pIC50 under setting [1] was 6.30 to 7.30.

As for `CC(C)OCc1nn2c(C(=O)NC3Cc4ccccc4C3)ccnc2c1C(N)=O` [Compound 27, N7-indan-2-yl-2-(isopropoxymethyl)pyrazolo[1,5-a]pyrimidine-3,7-dicarboxamide], the pIC50 under setting [2] was greater than 7.30.

`CC(C)OCc1nn2c(C(=O)NC3CC(F)(F)C3)ccnc2c1C(N)=O` [Compound 28, N7-(3,3-difluorocyclobutyl)-2-(isopropoxymethyl)pyrazolo[1,5-a]pyrimidine-3,7-dicarboxamide]: under setting [2], the pIC50 was 4.30 to 5.30.

With `CN(C)Cc1nn2c(C(=O)NC3Cc4ccccc4C3)ccnc2c1C(N)=O` [Compound 29, 2-[(dimethylamino)methyl]-N7-indan-2-yl-pyrazolo[1,5-a]pyrimidine-3,7-dicarboxamide], the negative-log IC50 (pIC50) under setting [1] is 5.30 to 6.30.

For the compound `CNCc1nn2c(C(=O)NC3Cc4ccccc4C3)ccnc2c1C(N)=O` [Compound 30, N7-indan-2-yl-2-(methylaminomethyl)pyrazolo[1,5-a]pyrimidine-3,7-dicarboxamide], under setting [1], the pIC50 is 5.30 to 6.30.

On to `O=C(NC1Cc2ccccc2C1)c1cccc2c(-c3ncco3)cnn12` [Compound 31, N-indan-2-yl-3-oxazol-2-yl-pyrazolo[1,5-a]pyridine-7-carboxamide], for which the pIC50 under setting [1] is 4.30 to 5.30.

Consider `Cc1nn2c(C(=O)NC3CC(F)(F)C3)c(-c3cn[nH]c3)cnc2c1C(N)=O` [Compound 32, N7-(3,3-difluorocyclobutyl)-2-methyl-6-(1H-pyrazol-4-yl)pyrazolo[1,5-a]pyrimidine-3,7-dicarboxamide], for which the pIC50 under setting [1] was 5.30 to 6.30.

Under setting [2], `NC(=O)c1c(-c2ncco2)nn2c(C(=O)NC3Cc4ccccc4C3)ccnc12` [Compound 33, N7-indan-2-yl-2-oxazol-2-yl-pyrazolo[1,5-a]pyrimidine-3,7-dicarboxamide] had a pIC50 greater than 7.30.

With `CNc1nn2c(C(=O)NC3CC(F)(F)C3)ccnc2c1C(N)=O` [Compound 34, N7-(3,3-difluorocyclobutyl)-2-(methylamino)pyrazolo[1,5-a]pyrimidine-3,7-dicarboxamide], the pIC50 under setting [1] was greater than 7.30.

Consider `CN(C)c1nn2c(C(=O)NC3CC(F)(F)C3)ccnc2c1C(N)=O` [Compound 35, N7-(3,3-difluorocyclobutyl)-2-(dimethylamino)pyrazolo[1,5-a]pyrimidine-3,7-dicarboxamide], for which the pIC50 under setting [1] is 5.30 to 6.30.

As for `NC(=O)c1c(-c2ccccc2F)nn2c(C(=O)NC3Cc4ccccc4C3)cccc12` [Compound 36, 2-(2-fluorophenyl)-N7-indan-2-yl-pyrazolo[1,5-a]pyridine-3,7-dicarboxamide], the pIC50 under setting [1] was 5.30 to 6.30.

For the compound `NC(=O)c1c(C2CCOC2)nn2c(C(=O)NC3Cc4ccccc4C3)ccnc12` (stereo not shown) [Compound 37, N7-indan-2-yl-2-tetrahydrofuran-3-yl-pyrazolo[1,5-a]pyrimidine-3,7-dicarboxamide], under setting [2], the pIC50 was greater than 7.30.

Consider `Cc1cnc2c(C(N)=O)c(C)nn2c1C(=O)NC1CC(F)(F)C1` [Compound 38, N7-(3,3-difluorocyclobutyl)-2,6-dimethyl-pyrazolo[1,5-a]pyrimidine-3,7-dicarboxamide], for which the pIC50 under setting [2] is 4.30 to 5.30.

Take `COCc1cc(C(=O)NC2CC(F)(F)C2)n2nc(C)c(C(N)=O)c2n1` [Compound 39, N7-(3,3-difluorocyclobutyl)-5-(methoxymethyl)-2-methyl-pyrazolo[1,5-a]pyrimidine-3,7-dicarboxamide]: the pIC50 under setting [2] is 5.30 to 6.30.

Turning to `CNC(=O)c1c(-c2ccccc2)nn2c(C(=O)NC3Cc4ccccc4C3)cccc12` [Compound 40, N7-indan-2-yl-N3-methyl-2-phenyl-pyrazolo[1,5-a]pyridine-3,7-dicarboxamide], the pIC50 under setting [1] was 4.00 to 4.30.

With `COc1cc(C(=O)NC2CC(F)(F)C2)n2nc(C)c(C(N)=O)c2n1` [Compound 41, N7-(3,3-difluorocyclobutyl)-5-methoxy-2-methyl-pyrazolo[1,5-a]pyrimidine-3,7-dicarboxamide], the pIC50 under setting [2] is 5.30 to 6.30.

For the compound `Cc1cc(C(=O)NC2CC(F)(F)C2)n2nc(C)c(C(N)=O)c2n1` [Compound 42, N7-(3,3-difluorocyclobutyl)-2,5-dimethyl-pyrazolo[1,5-a]pyrimidine-3,7-dicarboxamide], the pIC50 under setting [1] is 6.30 to 7.30.

Turning to `NC(=O)c1c(C2CCCO2)nn2c(C(=O)NC3CC(F)(F)C3)ccnc12` (stereo not shown) [Compound 43, N7-(3,3-difluorocyclobutyl)-2-tetrahydrofuran-2-yl-pyrazolo[1,5-a]pyrimidine-3,7-dicarboxamide], the pIC50 under setting [2] is 6.30 to 7.30.

For the compound `NC(=O)c1c(C2CCCO2)nn2c(C(=O)NC3Cc4ccccc4C3)ccnc12` (stereo not shown) [Compound 44, N7-indan-2-yl-2-tetrahydrofuran-2-yl-pyrazolo[1,5-a]pyrimidine-3,7-dicarboxamide], the pIC50 under setting [2] was 6.30 to 7.30.

Turning to `NC(=O)c1c(C2CCOC2)nn2c(C(=O)NC3CC(F)(F)C3)ccnc12` (stereo not shown) [Compound 45, N7-(3,3-difluorocyclobutyl)-2-tetrahydrofuran-3-yl-pyrazolo[1,5-a]pyrimidine-3,7-dicarboxamide], the pIC50 under setting [2] is 5.30 to 6.30.

As to `Cc1nn2c(C(=O)NC3Cc4ccccc4C3)ccnc2c1C(N)=O` [Compound 46, N7-indan-2-yl-2-methyl-pyrazolo[1,5-a]pyrimidine-3,7-dicarboxamide], under setting [1], the pIC50 was greater than 7.30.

For `Cc1nn2c(C(=O)NC3COc4ccccc4C3)ccnc2c1C(N)=O` (stereo not shown) [Compound 47, N7-chroman-3-yl-2-methyl-pyrazolo[1,5-a]pyrimidine-3,7-dicarboxamide], under setting [1], the pIC50 was 5.30 to 6.30.

`Cc1nn2c(C(=O)NC3CC(F)(F)C3)ccnc2c1C(N)=O` [Compound 48, N7-(3,3-difluorocyclobutyl)-2-methyl-pyrazolo[1,5-a]pyrimidine-3,7-dicarboxamide]: under setting [1], the pIC50 was 6.30 to 7.30.

With `Cc1nn2c(C(=O)NC3Cc4cccnc4C3)ccnc2c1C(N)=O` (stereo not shown) [Compound 49, N7-(6,7-dihydro-5H-cyclopenta[b]pyridin-6-yl)-2-methyl-pyrazolo[1,5-a]pyrimidine-3,7-dicarboxamide], the pIC50 under setting [1] is 5.30 to 6.30.

Usually pIC50 stands for the IC50 on a negative log10 scale, so that one unit is a factor of ten.
